Measurements: patent US7402314B2, “In vivo activation of tumor-specific cytotoxic T cells” (The Scripps Research Institute, priority 1995, dated 2008)
“And” between values parts separate entries of the source, which are not always exact repeats. Equal values may be shown once.

Assays:
[1] = tested on: A2.1/K^b-Tg mice; assay: Peptide priming of A2.1/K^b-Tg mice, lytic activity of peptide-specific CTL; assay type: in vivo; parameters: Lytic Activity by Peptide-Specific CTL After Priming of A2.1/K^b-Tg Mice [Specific ^51Cr release (%)]: concentration or dose not given beside the values; conditions: for Lytic Activity by Peptide-Specific CTL After Priming of A2.1/K^b-Tg Mice [Specific ^51Cr release (%)]: E:T ratio of 60:1, peptide-pulsed T2A2/K^b targets, highest of at least three individual mice; for A2.1/K^b-restricted peptide-specific CTL response of A2.1/K^b-Tg mice (in words): mouse, in vivo
[2] = molecular target: HLA-A2.1 (Homo sapiens, UniProt P04439, D140Y/D185E/D98H/E176V/E277Q/G131W/G231S/I119V/I121R/I166T/I218V/L300P/L318F/N151K/N90K/P208A/P217A/Q86G/Q94H/R138H/R169H/T345S); assay: Competition assay of peptide binding to HLA-A2.1 (inhibition of M1 58-66 binding, clone 12 lysis of EA2 targets)
[3] = tested on: LG-2; assay: Cytotoxicity assay, killing of tumors (Table 7); assay type: cell-based, human
Description: (§1) One hundred and six (106) target cells were incubated at 37° C. with […] of sodium ^51Cr chromate for 90 minutes in the presence or absence of specific peptide. Cells were washed three times and resuspended in 5% RPMI. For the assay, 104 ^51Cr-labeled target cells were incubated with different concentrations of effector cells in a final volume of […] in U-bottomed 96-well plates. Supernatants were removed after 4-7 hrs at 37° C., and the percent specific lysis was determined by the following formula: […]
(§2) Tumor cells were preincubated for 24 hours prior to the assay in media supplemented with γ-interferon (γ-IFN, 20 ng/ml) plus tumor necrosis factor-α (TNF-α, 3 ng/ml). It is known that such pretreatment of tumor cells increases the expression of MHC I and adhesion molecules such as ICAM I on the surface of the cell thus enhancing their sensitivity to lysis by CTL. (See, e.g., Fisk, et al., Lympho. & Cylokine Res. 13: 125-131 (1994); Fady, et al., Cancer Immunol. Immunother. 37: 329-336 (1993).)

[4] = tested on: SV80; assay: Cytotoxicity assay, killing of tumors (Table 7); assay type: cell-based, human
Description: as §1, §2

[5] = tested on: SW480; assay: Cytotoxicity assay, killing of tumors (Table 7); assay type: cell-based, human
Description: as §1, §2

[6] = tested on: T98G; assay: Cytotoxicity assay, killing of tumors (Table 7); assay type: cell-based, human
Description: as §1, §2

[7] = tested on: MCF-7; assay: Cytotoxicity assay, killing of tumors (Table 7); assay type: cell-based, human
Description: as §1, §2

[8] = tested on: MALME-3M; assay: Cytotoxicity assay, killing of tumors (Table 7); assay type: cell-based, human
Description: as §1, §2

[9] = tested on: U2-OS; assay: Cytotoxicity assay, killing of tumors (Table 7); assay type: cell-based, human
Description: as §1, §2

[10] = tested on: SKMEL-5; assay: Cytotoxicity assay, killing of tumors (Table 7); assay type: cell-based, human
Description: as §1, §2

[11] = tested on: OVCAR-5; assay: Cytotoxicity assay, killing of tumors (Table 7); assay type: cell-based, human
Description: as §1, §2

[12] = tested on: Hep-G2; assay: Cytotoxicity assay, killing of tumors (Table 7); assay type: cell-based, human
Description: as §1, §2

[13] = tested on: CASKI; assay: Cytotoxicity assay, killing of tumors (Table 7); assay type: cell-based, human
Description: as §1, §2

[14] = tested on: U87G; assay: Cytotoxicity assay, killing of tumors (Table 7); assay type: cell-based, human
Description: as §1, §2

[15] = tested on: ST486; assay: Cytotoxicity assay, killing of tumors (Table 7); assay type: cell-based, human
Description: as §1, §2

[16] = tested on: MDA.MB435; assay: Cytotoxicity assay, killing of tumors (Table 7); assay type: cell-based, human
Description: as §1, §2

[17] = tested on: JY; assay: Cytotoxicity assay, killing of tumors (Table 7); assay type: cell-based, human
Description: as §1, §2

[18] = tested on: SAOS.175; assay: Cytotoxicity assay, killing of tumors (Table 7); assay type: cell-based, human
Description: as §1, §2

[19] = tested on: Saos-2/175; assay: 5-hour ^51Cr release assay, endogenously synthesized p53 epitopes (Example 4); assay type: cell-based, human; conditions: relative to p53-deficient Saos-2

Sequence | Lytic Activity by Peptide-Specific CTL After Priming of A2.1/K^b-Tg Mice [Specific ^51Cr release (%)] [1] | A2.1/K^b-restricted peptide-specific CTL response of A2.1/K^b-Tg mice (in words) [1] | also measured
AAPPVAPA [hu-wt-p53 69-76] | 0% |  | 
AAPPVAPAPA [hu-wt-p53 69-78] | 0% |  | 
AAPPVAPAPAA [hu-wt-p53 69-79] | 0% |  | 
AAPTPAAPA [hu-wt-p53 78-86] | 0% |  | 
ALNKMFCQL | 0% |  | 
DLMLSPDDI [hu-wt-p53 42-50] | 0% |  | 
GLAPPQHLI [hu-wt-p53 187-195] | 1% | lack of CTL responsiveness | A2.1-binding activity / affinity for the presenting MHC class I molecule (in words) [2]: high
ILKEPVHGV [HIV-1 RT 476-484, reference compound] |  | could mount an A2.1/K^b-restricted CTL response | 
ITLEDSSGNL [hu-wt-p53 255-264] | 3% | lack of CTL responsiveness | A2.1-binding activity / affinity for the presenting MHC class I molecule (in words) [2]: intermediate
KLVGKLNWA [HIV-9K, reference compound] |  |  | Killing of Tumors Expressing Her-2/neu (percent specific lysis) [3]: 1%; Killing of Tumors Expressing Her-2/neu (percent specific lysis) [4]: 2%; Killing of Tumors Expressing Her-2/neu (percent specific lysis) [5]: 1% and 4%; Killing of Tumors Expressing Her-2/neu (percent specific lysis) [6]: 9% and 13%; Killing of Tumors Expressing Her-2/neu (percent specific lysis) [7]: 3% and 7%; Killing of Tumors Expressing Her-2/neu (percent specific lysis) [8]: 2% and 1%; Killing of Tumors Expressing Her-2/neu (percent specific lysis) [9]: 18% and 24%; Killing of Tumors Expressing Her-2/neu (percent specific lysis) [10]: 5% and 4%; Killing of Tumors Expressing Her-2/neu (percent specific lysis) [11]: 10% and 12%; Killing of Tumors Expressing Her-2/neu (percent specific lysis) [12]: 1% and 8%; Killing of Tumors Expressing Her-2/neu (percent specific lysis) [13]: 8% and 11%; Killing of Tumors Expressing Her-2/neu (percent specific lysis) [14]: 5% and 1%; Killing of Tumors Expressing Her-2/neu (percent specific lysis) [15]: 1%; Killing of Tumors Expressing Her-2/neu (percent specific lysis) [16]: 4% and 3%; Killing of Tumors Expressing Her-2/neu (percent specific lysis) [17]: 2% and 1%; Killing of Tumors Expressing Her-2/neu (percent specific lysis) [18]: 18% and 11%
LLGRDSFEV [mur-wt-p53 261-269, reference compound] | 10% | No significant response | A2.1-binding activity / affinity for the presenting MHC class I molecule (in words) [2]: highest A2.1-binding activity of all p53 peptides tested
LLGRNSFEV | 94% | detectable | 
LLPENNVLS [hu-wt-p53 25-33] | 3% |  | 
LLPENNVLSPL [hu-wt-p53 25-35] | 47% | detectable | A2.1-binding activity / affinity for the presenting MHC class I molecule (in words) [2]: high affinity; recognition of Saos-2/175 by CTL from A2.1/K^b-Tg mice specific for the peptide (endogenous processing and presentation) [19]: did not lyse Saos-2/175
LMLSPDDIEQ [hu-wt-p53 43-52] | 3% |  | 
NLLGRNSFEV [hu-wt-p53 263-272] | 3% |  | 
NTFRHSVVV [hu-wt-p53 210-218] | 6% |  | 
PLDGEYFTL [hu-wt-p53 322-330] | 0% | lack of CTL responsiveness | A2.1-binding activity / affinity for the presenting MHC class I molecule (in words) [2]: intermediate
RMPEAAPPV [hu-wt-p53 65-73] | 85% | detectable | A2.1-binding activity / affinity for the presenting MHC class I molecule (in words) [2]: high affinity; recognition of Saos-2/175 by CTL from A2.1/K^b-Tg mice specific for the peptide (endogenous processing and presentation) [19]: did not lyse Saos-2/175
SVTCTYSPA [hu-wt-p53 121-129] |  |  | A2.1-binding: inhibition of A2.1-binding of M1 (58-66) (%) [2]: 8%
VAPAPAAPT [hu-wt-p53 73-81] | 0% |  | 
VLSPLPSQA [hu-wt-p53 31-39] | 3% |  | 
VLSPLPSQAM [hu-wt-p53 31-40] | 0% |  | 
